Source: US6919363B2, “Aryl substituted pyrazoles, triazoles and tetrazoles, and the use thereof” (Euro-Celtique S.A., priority 2000, dated 2005)
Like-named read-outs stand apart in the source and are kept apart here.

Legend:
[1] = test system: maximal electroshock-induced seizures (MES); assay: maximum electroshock seizure test (MES), anticonvulsant activity; type: in vivo, mouse
Description: The compounds of the present invention may be tested for in vivo anticonvulsant activity after i.v., p.o. or i.p. injection using a number of anticonvulsant tests in mice, including the maximum electroshock seizure test (MES). Maximum electroshock seizures are induced in male NSA mice weighing between 15-20 g and male Sprague-Dawley rats weighing between 200-225 g by application of current (50 mA, 60 pulses/sec, 0.8 msec pulse width, 1 sec duration, D.C., mice; 99 mA, 125 pulses/sec, 0.8 msec pulse width, 2 sec duration, D.C., rats) using a Ugo Basile ECT device (Model 7801). Mice are restrained by gripping the loose skin on their dorsal surface and saline-coated corneal electrodes are held lightly against the two corneae. Rats are allowed free movement on the bench top and ear-clip electrodes are used. Current is applied and animals are observed for a period of up to 30 seconds for the occurrence of a tonic hindlimb extensor response. A tonic seizure is defined as a hindlimb extension in excess of 90 degrees from the plane of the body. Results are treated in a quantal manner.
The ability of compounds of the present invention to block maximal electroshock-induced seizures (MES) is determined as described earlier.
A compound of the present invention is administered p.o. to mice 30 minutes before the test procedure.

[2] = biological target: rBIIA isoform of Na+ channels (Rattus norvegicus, UniProt P04775); assay: electrophysiological assay, patch-clamp recordings of voltage-sensitive Na+ currents in HEK-293 cells; type: cell-based; settings: rBIIA isoform of sodium channel
Procedure: Cell preparation: HEK-293 (NaIIA-B2) cell line stably expressing the rBIIA isoform of Na^+ channels is established in-house. The cells are cultured using standard techniques, as described previously (Verdoorn, T. A, et al., Neuron 4:919-928 (1990)). For electrophysiology, cells are plated onto poly-D-lysine pre-coated Cellware 35 mm Petri dishes (BIOCOAT, Becton Dickinson) at a density of ˜10^4 cells/dish on the day of re-seeding from confluent cultures. Our experience has been that cells are suitable for recordings for 2-3 days after plating.
Patch-clamp recordings of voltage-sensitive Na^+ currents: Whole-cell voltage-clamp recordings are made using conventional patch-clamp techniques (Hamill et al., Pfluegers Arch. 391:85-100 (1981)) with an Axopatch 200A amplifier (Axon Instruments, Foster City, Calif.). The recording chamber is continuously superfused with the external solution (150 mM NaCl, 5.4 mM KCl, 1.8 mM CaCl2, 1 mM MgCl2, 10 mM HEPES, 10 mM glucose, pH 7.4 adjusted with NaOH, osmolality ˜320 mmol/kg) at a speed of about 1 mL/min. […] Currents are recorded at room temperature (22-25° C.), filtered at 3 kHz with an active 8-pole Bessel filter (Frequency Devices, Haverhill, Mass.), digitized at 10-50 μs intervals, and stored using Digidata 1200 analog/digital interface with Pclamp6/Clampex software (Axon Instruments). […]

[3] = iv, mouse, i.v., read-out: MES i.v. ED50

Sequence of rBIIA isoform of Na+ channels (P04775 whole entry, canonical isoform): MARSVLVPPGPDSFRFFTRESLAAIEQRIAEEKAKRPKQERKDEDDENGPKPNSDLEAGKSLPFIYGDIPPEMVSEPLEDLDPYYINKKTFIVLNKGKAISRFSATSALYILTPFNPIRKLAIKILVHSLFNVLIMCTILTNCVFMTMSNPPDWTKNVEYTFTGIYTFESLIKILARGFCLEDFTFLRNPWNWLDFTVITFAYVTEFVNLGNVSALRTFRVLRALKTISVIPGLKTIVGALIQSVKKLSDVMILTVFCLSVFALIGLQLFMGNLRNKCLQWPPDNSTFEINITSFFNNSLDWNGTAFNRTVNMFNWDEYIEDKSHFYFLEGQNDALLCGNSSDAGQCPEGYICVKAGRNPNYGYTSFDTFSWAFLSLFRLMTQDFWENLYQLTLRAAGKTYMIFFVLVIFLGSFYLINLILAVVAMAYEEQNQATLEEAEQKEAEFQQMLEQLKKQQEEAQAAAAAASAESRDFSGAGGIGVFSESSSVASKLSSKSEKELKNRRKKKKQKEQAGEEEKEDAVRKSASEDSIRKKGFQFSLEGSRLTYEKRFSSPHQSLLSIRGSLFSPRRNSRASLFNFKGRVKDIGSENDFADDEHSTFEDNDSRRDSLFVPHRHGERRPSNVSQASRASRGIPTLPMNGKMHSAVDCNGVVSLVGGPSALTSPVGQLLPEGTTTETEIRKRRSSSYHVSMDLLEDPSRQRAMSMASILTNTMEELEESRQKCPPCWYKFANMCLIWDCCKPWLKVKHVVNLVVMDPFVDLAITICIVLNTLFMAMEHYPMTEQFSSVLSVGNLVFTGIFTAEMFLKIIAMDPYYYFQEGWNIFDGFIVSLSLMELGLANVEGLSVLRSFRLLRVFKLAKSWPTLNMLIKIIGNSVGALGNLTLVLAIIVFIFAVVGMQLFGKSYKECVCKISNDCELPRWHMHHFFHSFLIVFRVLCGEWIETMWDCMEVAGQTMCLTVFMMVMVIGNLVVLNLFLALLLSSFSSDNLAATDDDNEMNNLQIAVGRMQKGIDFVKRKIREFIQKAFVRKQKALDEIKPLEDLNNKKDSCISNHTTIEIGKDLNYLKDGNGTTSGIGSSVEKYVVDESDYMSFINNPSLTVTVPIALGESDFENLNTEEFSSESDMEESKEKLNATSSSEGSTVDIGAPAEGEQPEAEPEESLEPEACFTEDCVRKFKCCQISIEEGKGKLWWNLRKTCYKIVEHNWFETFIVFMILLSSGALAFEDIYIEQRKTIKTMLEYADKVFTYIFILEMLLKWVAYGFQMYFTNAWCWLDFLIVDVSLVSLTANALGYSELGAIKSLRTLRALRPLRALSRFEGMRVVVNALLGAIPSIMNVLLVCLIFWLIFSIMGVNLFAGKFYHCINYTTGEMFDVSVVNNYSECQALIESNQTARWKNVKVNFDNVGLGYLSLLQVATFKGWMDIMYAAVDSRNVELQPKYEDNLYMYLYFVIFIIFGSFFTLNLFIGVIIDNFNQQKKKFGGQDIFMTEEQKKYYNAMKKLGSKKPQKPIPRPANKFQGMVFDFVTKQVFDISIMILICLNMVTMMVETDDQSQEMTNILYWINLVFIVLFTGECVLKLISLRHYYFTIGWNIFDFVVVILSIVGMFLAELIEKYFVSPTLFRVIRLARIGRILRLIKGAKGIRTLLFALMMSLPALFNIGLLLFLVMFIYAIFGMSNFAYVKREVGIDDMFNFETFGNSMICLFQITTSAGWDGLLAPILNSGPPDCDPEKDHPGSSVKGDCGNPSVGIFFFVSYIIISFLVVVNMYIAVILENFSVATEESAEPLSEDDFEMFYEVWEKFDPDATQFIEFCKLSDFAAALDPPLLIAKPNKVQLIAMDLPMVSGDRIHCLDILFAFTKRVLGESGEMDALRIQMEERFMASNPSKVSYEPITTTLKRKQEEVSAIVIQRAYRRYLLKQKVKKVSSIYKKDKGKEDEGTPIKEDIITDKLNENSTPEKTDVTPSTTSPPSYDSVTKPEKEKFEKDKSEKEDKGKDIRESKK

Row | Compound | ED50 [1, 3] | melting point | Ki [2] | ED50 ([1]; Mus musculus, po, mice, 30 minutes before the test procedure, read-out: MES po ED50)
1 | NC(=O)c1ccnn1-c1ccc(Oc2ccccc2)cc1 [1-(4-phenoxyphenyl)-1H-pyrazole-5-carboxamide] | 10 mg/kg | 142 to 144 °C |  | 
2 | NC(=O)c1ccn(-c2ccc(Oc3ccccc3)cc2)n1 [1-(4-Phenoxyphenyl)-1H-pyrazole-3-carboxamide] | 0.7 mg/kg | 165 to 167 °C | 0.35 µM | 
3 | O=[N+]([O-])c1ccc(Oc2ccc(-n3cncn3)cc2)cc1 [1-[4-(4-Nitrophenoxy)phenyl]-1H-[1,2,4]triazole] |  |  |  | 6.6 mg/kg
